# Source: patent publication US9155714B2, “Compositions comprising an aromatic alcohol and a TRPV-1 antagonist, and uses thereof” (JOHNSON & JOHNSON CONSUMER INC., priority 2013, dated 2015)
# Values joined by “and” are separate entries in the source; they are usually repeats but may differ in a detail not shown here. Equal entries are not always repeated.
# Assays:
# Assay type in all cases: cell-based
# [1] = target: T1, human vanilloid receptor-1 (TRPV-1) (Homo sapiens, UniProt Q8NER1); test: Calcium Flux Test, activity as TRPV-1 agonist; design: key: **: Statistically significant; n/s: Not statistically significant
# T1 construct: host or cells: HEK293
# T1 sequence (Q8NER1 whole entry): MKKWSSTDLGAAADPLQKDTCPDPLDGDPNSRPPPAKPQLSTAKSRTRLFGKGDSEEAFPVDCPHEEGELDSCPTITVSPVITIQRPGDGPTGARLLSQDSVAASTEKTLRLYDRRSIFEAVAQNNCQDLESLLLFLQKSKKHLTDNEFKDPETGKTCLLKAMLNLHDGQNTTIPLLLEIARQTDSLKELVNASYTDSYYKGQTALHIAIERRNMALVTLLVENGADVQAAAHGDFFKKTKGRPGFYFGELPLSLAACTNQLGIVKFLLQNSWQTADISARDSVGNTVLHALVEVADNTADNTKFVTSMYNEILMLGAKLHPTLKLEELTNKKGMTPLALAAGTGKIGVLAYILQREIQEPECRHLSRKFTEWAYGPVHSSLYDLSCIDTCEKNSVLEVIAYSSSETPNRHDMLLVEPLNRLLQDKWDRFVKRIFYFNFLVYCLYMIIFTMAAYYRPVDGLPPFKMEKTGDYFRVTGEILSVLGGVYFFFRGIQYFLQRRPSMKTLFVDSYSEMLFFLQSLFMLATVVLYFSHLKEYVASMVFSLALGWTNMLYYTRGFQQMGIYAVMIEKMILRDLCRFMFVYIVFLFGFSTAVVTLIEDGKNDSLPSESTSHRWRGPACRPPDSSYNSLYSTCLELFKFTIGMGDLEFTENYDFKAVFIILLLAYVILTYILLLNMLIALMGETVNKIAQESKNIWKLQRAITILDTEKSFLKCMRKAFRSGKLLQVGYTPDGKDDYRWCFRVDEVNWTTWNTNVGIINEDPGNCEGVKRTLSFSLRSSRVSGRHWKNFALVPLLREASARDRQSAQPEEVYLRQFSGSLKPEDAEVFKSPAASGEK
# Experimental: (§1) The Calcium Flux Test is performed in the following manner: Recombinant HEK293 cells expressing human vanilloid receptor-1 (TRPV-1; accession number AF196175, EMD Millipore, Billerica, Mass.) are grown in D-MEM/F-12 media (Life Technologies, Grand Island, N.Y.) supplemented with 10% fetal bovine serum, 1% non essential amino acids and 400 μg/mL Geneticin (Gibco, Life Technologies). Cells are plated at a concentration of 15,000 cells per well on poly-D-lysine-coated 384 well plates and incubated overnight at 5% CO2 and 37° C. After incubation, culture media is removed from the wells and replaced with 50 μL per well of Fluo-8 No Wash dye solution (#36315, AAT Bioquest, Sunnyvale, Calif.). The Fluo-8 dye solution is prepared by mixing 20 uL of Fluo-8 NW with 30 mL of 0.33× Pluronic® F127 Plus (BASF of Ludwigshafen, Germany) in assay buffer (1×HBSS+2% of HEPES). Fluo-8 dye is incubated for 30 minutes at room temperature. Intracellular calcium (Ca^2+) flux is monitored upon exposure to aromatic alcohol in DMSO vehicle by measuring fluorescence intensity at Ex/Em 490/525 on a Functional Drug Screening System (FDSS; Hamamatsu, […]). Measurements are taken every second for a period of 4 minutes. […] Statistical differences are obtained using One Way ANOVA with Tukey Post-hoc test; statistical significance is defined as P≦0.05.
# (§2) Phenoxyethanol was tested at a series of concentrations in DMSO for activity as a TRPV-1 agonist according to the Calcium Flux Test described above. Capsaicin was used as a positive control.
# (§3) Maximum RFU values for treatment with phenoxyethanol or capsaisin were compared to the Maximum RFU for a DMSO vehicle alone. Concentrations of phenoxyethanol and capsaicin are reported in milimolar (mM) and nanomolar (nM), respectively.
# (§4) Benzyl alcohol and sodium bicarbonate were tested using the Calcium Flux Test.
# (§5) Benzyl alcohol and phenethyl alcohol were tested at a series of concentrations in DMSO for activity as a TRPV-1 agonist as described in Example 1. Concentrations of benzyl alcohol and phenethyl alcohol are reported in units of % w/v.
# [2] = target: T1, human vanilloid receptor-1 (TRPV-1); test: Calcium Flux Test, activity as TRPV-1 agonist
# Experimental: as §1, §2, §3, §4, §5
# [3] = target: T1, human vanilloid receptor-1 (TRPV-1); test: Calcium Flux Test, inhibition of phenoxyethanol-induced calcium flux
# Experimental: as §1
# (§6) The Maximum RFU obtained with a given concentration of aromatic alcohol is compared with the Maximum RFU obtained using the same concentration of aromatic alcohol but pretreated with the TRPV-1 antagonist for 5 minutes after dye incubation. Percent inhibition achieved with the TRPV-1 antagonist is calculated as: 100*((Maximum RFU of aromatic alcohol−Maximum RFU of aromatic alcohol pretreated with TRPV-1 antagonist)/Maximum RFU of aromatic alcohol).
# (§7) Capsazepine and AMG9810 were tested for activity as TRPV-1 antagonists using the Calcium Flux Test using two different concentrations of phenoxyethanol in DMSO. They were also tested using the Calcium Flux Test in which phenoxyethanol was replaced with capsaicin. […]
# [4] = target: T1, human vanilloid receptor-1 (TRPV-1); test: Calcium Flux Test, phenoxyethanol replaced with capsaicin (capsaicin-induced calcium flux); settings: capsaicin 300 nM
# Experimental: as §1, §6, §7
structure (smiles),measurement,setting,value
"OCc1ccccc1 [Benzyl Alcohol, benzyl alcohol]",P < 0.05 Compared to Vehicle,[1]; benzyl alcohol 0.25 mM,n/s
same,P < 0.05 Compared to Vehicle,[1]; benzyl alcohol 0.5 mM,n/s
same,P < 0.05 Compared to Vehicle,[1]; benzyl alcohol 1 mM,n/s
same,P < 0.05 Compared to Vehicle,[1]; benzyl alcohol 2 mM,n/s
same,P < 0.05 Compared to Vehicle,[1]; benzyl alcohol 4 mM,**
same,intracellular calcium flux in TRPV-1-transfected HEK cells (result in words),[2],dose dependent increases
same,Maximum RFU,[2]; benzyl alcohol 0.000161 % w/v alone (no antagonist),10.95 ± 0.23 RFU and 8.44 RFU and 16.17 ± 1.16 RFU
same,Maximum RFU (mean ± SD),[2]; benzyl alcohol 0.25 mM (Example 7),64.45 ± 28.15 RFU
same,Maximum RFU (mean ± SD),[2]; benzyl alcohol 0.5 mM (Example 7),104.45 ± 12.50 RFU
same,Maximum RFU (mean ± SD),[2]; benzyl alcohol 1 mM (Example 7),113.51 ± 4.70 RFU
same,Maximum RFU (mean ± SD),[2]; benzyl alcohol 2 mM (Example 7),135.45 ± 12.15 RFU
same,Maximum RFU (mean ± SD),[2]; benzyl alcohol 4 mM (Example 7),362.51 ± 126.09 RFU
same,Maximum RFU,[2]; benzyl alcohol 0.004357 % w/v alone (no antagonist),43.91 ± 3.74 RFU and 31.54 RFU and 55.75 ± 2.68 RFU
same,Maximum RFU,[2]; benzyl alcohol 0.013072 % w/v alone (no antagonist),160.8 ± 12.61 RFU and 93.35 RFU and 124.54 ± 13.18 RFU
same,Maximum RFU,[2]; benzyl alcohol 0.04 % w/v alone (no antagonist),608.23 ± 10.21 RFU and 410.41 RFU and 424.01 ± 2.92 RFU
same,Maximum RFU,[2]; benzyl alcohol 6.64E−07 % w/v alone (no antagonist),9.37 ± 1.66 RFU and 7.66 RFU and 13.85 ± 1.83 RFU
same,activity for TRPV-1 activation (result in words),"[2]; doses of 2 mM and below, Example 7",did not show statistically significant activity
"O=C([O-])O.[Na+] [Sodium Bicarbonate, sodium bicarbonate]",P < 0.05 Compared to Vehicle,[1]; sodium bicarbonate 0.03125 mM,n/s
same,P < 0.05 Compared to Vehicle,[1]; sodium bicarbonate 0.0625 mM,n/s
same,P < 0.05 Compared to Vehicle,[1]; sodium bicarbonate 0.125 mM,n/s
same,P < 0.05 Compared to Vehicle,[1]; sodium bicarbonate 0.25 mM,**
same,P < 0.05 Compared to Vehicle,[1]; sodium bicarbonate 0.5 mM,n/s
same,intracellular calcium flux in TRPV-1-transfected HEK cells (result in words),[2],do not Induce Calcium Flux
same,Maximum RFU (mean ± SD),[2]; sodium bicarbonate 0.03125 mM,109.99 ± 1.37 RFU
same,Maximum RFU (mean ± SD),[2]; sodium bicarbonate 0.0625 mM,102.15 ± 4.19 RFU
same,Maximum RFU (mean ± SD),[2]; sodium bicarbonate 0.125 mM,114.34 ± 6.46 RFU
same,Maximum RFU (mean ± SD),[2]; sodium bicarbonate 0.25 mM,124.90 ± 8.41 RFU
same,Maximum RFU (mean ± SD),[2]; sodium bicarbonate 0.5 mM,3.39 ± 2.66 RFU
"C[C@]12CCC(=O)C=C1CC[C@@H]1[C@@H]2[C@@H](O)C[C@@]2(C)[C@H]1CC[C@]2(O)C(=O)CO [Hydrocortisone, hydrocortisone]",reducing phenoxyethanol-induced calcium flux (result in words),[3]; TRPV-1-expressing HEK293 cells,"none of hydrocortisone, diphenhydramine or lidocaine were effective"
same,Maximum RFU (mean ± SD),"[3]; compound 25 μM, phenoxyethanol 2 mM",171.65 ± 83.27 RFU
same,Maximum RFU (mean ± SD),"[3]; compound 25 μM, phenoxyethanol 3 mM",309.90 ± 40.00 RFU
same,Maximum RFU (mean ± SD),"[3]; compound 100 μM, phenoxyethanol 2 mM",160.66 ± 30.14 RFU
same,Maximum RFU (mean ± SD),"[3]; compound 100 μM, phenoxyethanol 3 mM",225.19 ± 38.09 RFU
same,Maximum RFU (mean ± SD),[4]; compound 25 μM,950.97 ± 49.52 RFU
same,Maximum RFU (mean ± SD),[4]; compound 100 μM,963.83 ± 65.21 RFU
